Assay results reported in patent publication US20260184663A1, “INDENE COMPOUNDS, PHARMACEUTICAL COMPOSITIONS THEREOF, AND THEIR THERAPEUTIC APPLICATIONS” (NucMito Pharmaceuticals co. Ltd., priority 2022, published 2026).

Tests used:
Type in all cases: cell-based
[1] = system: MDA-MB-231 (breast cancer); experiment: Antiproliferative activity (CCK-8 cell viability), MDA-MB-231; settings: Homo sapiens, 72 h, read-out: Antiproliferative activity in cancerous cells, MDA-MB-231 (inhibition of cell growth); for inhibition at 3.3 µM: Compound concentration: 3.3 μM; for inhibition at 10 µM: Compound concentration: 10 μM
How it was run: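 MDA-MB-231 breast cancer cells, grown in DMEM with 10% FBS, were plated in 96-well plates at 2,000-5,000 cells/well. Once attached, they were exposed to compound and incubated at 37° C. for 72 h. Viability was then measured with CCK-8 (10 μL per well, 4 h at 37° C.) by absorbance at 450 nm, relative to DMSO vehicle wells.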

HepG2 (liver cancer) = experiment: Antiproliferative activity (CCK-8 cell viability), HepG2; settings: Homo sapiens, 72 h, read-out: Antiproliferative activity in cancerous cells, HepG2 (inhibition of cell growth); for inhibition at 3.3 µM: Compound concentration: 3.3 μM; for inhibition at 10 µM: Compound concentration: 10 μM
How it was run: (§1)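 Cells grown in DMEM (HepG2, SW480), MEM (HeLa) or F-12K (A549), each with 10% FBS, then exposed to compound at 3.3, 10 or 30 μM for 72 h at 37 °C. CCK-8 absorbance at 450 nm; viability expressed as percent of DMSO-treated cells, graded as growth inhibition bands.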

SW480 (colon cancer) = experiment: Antiproliferative activity (CCK-8 cell viability), SW480; settings: Homo sapiens, 72 h, read-out: Antiproliferative activity in cancerous cells, SW480 (inhibition of cell growth); for inhibition at 3.3 µM: Compound concentration: 3.3 μM; for inhibition at 10 µM: Compound concentration: 10 μM
How it was run: as §1

[2] = system: B16F10 (malignant melanoma); experiment: Antiproliferative activity (CCK-8 cell viability), B16F10; settings: Mus musculus, 72 h, read-out: Antiproliferative activity in cancerous cells, B16F10 (inhibition of cell growth); for inhibition at 3.3 µM: B16-F10, Compound concentration: 3.3 μM; for inhibition at 10 µM: B16-F10, Compound concentration: 10 μM
How it was run: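 B16F10 melanoma cells grown in DMEM with 10% FBS were plated in 96-well plates at 2,000-5,000 cells/well. After attachment they were exposed to compound in medium for 72 h at 37° C. CCK-8 solution (10 μL) was then added, and after 4 h at 37° C absorbance was read at 450 nm.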

[3] = system: A431 (epidermoid carcinoma); experiment: Antiproliferative activity (CCK-8 cell viability), A431; settings: Homo sapiens, 72 h, read-out: Antiproliferative activity in cancerous cells, A431 (inhibition of cell growth); for inhibition at 3.3 µM: A-431, Compound concentration: 3.3 μM; for inhibition at 10 µM: A-431, Compound concentration: 10 μM
How it was run: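 A431 epidermoid carcinoma cells grown in DMEM with 10% FBS were plated at 2,000-5,000 cells/well in 96-well plates. After attachment they were exposed to compound at 3.3 μM, 10 μM, or 30 μM for 72 h at 37° C. Viability was then assessed by CCK-8 against DMSO vehicle-treated wells.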

[4] = system: A549 (lung adenocarcinoma); experiment: Antiproliferative activity (CCK-8 cell viability), A549; settings: Homo sapiens, 72 h, read-out: Antiproliferative activity in cancerous cells, A549 (inhibition of cell growth); for inhibition at 3.3 µM: Compound concentration: 3.3 μM; for inhibition at 10 µM: Compound concentration: 10 μM
How it was run: as §1

HeLa (cervical cancer) = experiment: Antiproliferative activity (CCK-8 cell viability), HeLa; settings: Homo sapiens, 72 h, read-out: Antiproliferative activity in cancerous cells, HELA (inhibition of cell growth); for inhibition at 3.3 µM: Compound concentration: 3.3 μM; for inhibition at 10 µM: Compound concentration: 10 μM
How it was run: as §1

COc1cc(Oc2cccc(/C=C3/C(C)=C(CC(=O)O)c4cc(F)ccc43)c2)ccc1Cl [C107, (Z)-2-(1-(3-(4-Chloro-3-methoxyphenoxy)benzylidene)-5-fluoro-2-methyl-1H-inden-3-yl)acetic acid]
< 30%: inhibition at 3.3 µM (HepG2 (liver cancer)) | inhibition at 3.3 µM (HeLa (cervical cancer))
30 to 50%: inhibition at 3.3 µM (SW480 (colon cancer))
≥ 50%: inhibition at 3.3 µM [1] | inhibition at 10 µM [1] | inhibition at 10 µM (HepG2 (liver cancer)) | inhibition at 10 µM (SW480 (colon cancer)) | inhibition at 3.3 µM [2] | inhibition at 10 µM [2] | inhibition at 3.3 µM [3] | inhibition at 10 µM [3] | inhibition at 3.3 µM [4] | inhibition at 10 µM [4] | inhibition at 10 µM (HeLa (cervical cancer))

COc1ccc(CCCc2ccc(/C=C3/C(C)=C(CC(=O)O)c4cc(F)ccc43)cc2)cc1 [B126, (Z)-2-(5-Fluoro-1-(4-(3-(4-methoxyphenyl)propyl)benzylidene)-2-methyl-1H-inden-3-yl)acetic acid]
30 to 50%: inhibition at 3.3 µM (HepG2 (liver cancer)) | inhibition at 3.3 µM (HeLa (cervical cancer))
< 30%: inhibition at 3.3 µM (SW480 (colon cancer)) | inhibition at 3.3 µM [2] | inhibition at 3.3 µM [3] | inhibition at 3.3 µM [4]
≥ 50%: inhibition at 3.3 µM [1] | inhibition at 10 µM [1] | inhibition at 10 µM (HepG2 (liver cancer)) | inhibition at 10 µM (SW480 (colon cancer)) | inhibition at 10 µM [2] | inhibition at 10 µM [3] | inhibition at 10 µM [4] | inhibition at 10 µM (HeLa (cervical cancer))

CC1=C(CC(=O)O)c2cc(F)ccc2/C1=C\c1ccc(C2(c3ccccc3)SCCS2)cc1 [C353, (Z)-2-(5-Fluoro-2-methyl-1-(4-(2-phenyl-1,3-dithiolan-2-yl)benzylidene)-1H-inden-3-yl)acetic acid]
≥ 50%: inhibition at 3.3 µM [1] | inhibition at 10 µM [1] | inhibition at 30 µM ([1]; Compound concentration: 30 μM) | inhibition at 3.3 µM (HepG2 (liver cancer)) | inhibition at 10 µM (HepG2 (liver cancer)) | inhibition at 30 µM (HepG2 (liver cancer); Compound concentration: 30 μM) | inhibition at 3.3 µM (SW480 (colon cancer)) | inhibition at 10 µM (SW480 (colon cancer)) | inhibition at 30 µM (SW480 (colon cancer); Compound concentration: 30 μM) | inhibition at 10 µM [2] | inhibition at 30 µM ([2]; B16-F10, Compound concentration: 30 μM) | inhibition at 3.3 µM [3] | inhibition at 10 µM [3] | inhibition at 30 µM ([3]; A-431, Compound concentration: 30 μM) | inhibition at 10 µM [4] | inhibition at 30 µM ([4]; Compound concentration: 30 μM) | inhibition at 3.3 µM (HeLa (cervical cancer)) | inhibition at 10 µM (HeLa (cervical cancer)) | inhibition at 30 µM (HeLa (cervical cancer); Compound concentration: 30 μM)
< 30%: inhibition at 3.3 µM [2] | inhibition at 3.3 µM [4]

CC1=C(CC(=O)O)c2cc(F)ccc2/C1=C\c1cccc(CSc2ccc(F)cc2)c1 [B49, (Z)-2-(5-Fluoro-1-(3-(((4-fluorophenyl)thio)methyl)benzylidene)-2-methyl-1H-inden-3-yl)acetic acid]
≥ 50%: inhibition at 3.3 µM [1] | inhibition at 10 µM [1] | inhibition at 10 µM (HepG2 (liver cancer)) | inhibition at 10 µM (SW480 (colon cancer)) | inhibition at 3.3 µM [2] | inhibition at 10 µM [2] | inhibition at 10 µM (HeLa (cervical cancer))
30 to 50%: inhibition at 10 µM [3] | inhibition at 10 µM [4]
< 30%: inhibition at 3.3 µM (HepG2 (liver cancer)) | inhibition at 3.3 µM (SW480 (colon cancer)) | inhibition at 3.3 µM [3] | inhibition at 3.3 µM [4] | inhibition at 3.3 µM (HeLa (cervical cancer))

CC1=C(CC(=O)O)c2cc(F)ccc2/C1=C\c1ccc(C(=O)c2ccccc2)cc1 [C307, (Z)-2-(1-(4-Benzoylbenzylidene)-5-fluoro-2-methyl-1H-inden-3-yl)acetic acid]
30 to 50%: inhibition at 3.3 µM [1] | inhibition at 3.3 µM (HepG2 (liver cancer)) | inhibition at 3.3 µM [3]
< 30%: inhibition at 3.3 µM (SW480 (colon cancer)) | inhibition at 3.3 µM [2] | inhibition at 3.3 µM [4] | inhibition at 3.3 µM (HeLa (cervical cancer))
≥ 50%: inhibition at 10 µM [1] | inhibition at 10 µM (HepG2 (liver cancer)) | inhibition at 10 µM (SW480 (colon cancer)) | inhibition at 10 µM [2] | inhibition at 10 µM [3] | inhibition at 10 µM [4] | inhibition at 10 µM (HeLa (cervical cancer))

CC1=C(CC(=O)O)c2cc(F)ccc2/C1=C\c1ccc(COCc2ccc(F)cc2)cc1 [B101, (Z)-2-(5-Fluoro-1-(4-(((4-fluorobenzyl)oxy)methyl)benzylidene)-2-methyl-1H-inden-3-yl)acetic acid]
30 to 50%: inhibition at 3.3 µM (HepG2 (liver cancer)) | inhibition at 10 µM [3] | inhibition at 3.3 µM [4]
< 30%: inhibition at 3.3 µM (SW480 (colon cancer)) | inhibition at 3.3 µM [2] | inhibition at 3.3 µM [3] | inhibition at 3.3 µM (HeLa (cervical cancer))
≥ 50%: inhibition at 3.3 µM [1] | inhibition at 10 µM [1] | inhibition at 10 µM (HepG2 (liver cancer)) | inhibition at 10 µM (SW480 (colon cancer)) | inhibition at 10 µM [2] | inhibition at 10 µM [4] | inhibition at 10 µM (HeLa (cervical cancer))

CC1=C(CC(=O)O)c2cc(F)ccc2/C1=C\c1ccc(COCc2ccc(C(C)C)cc2)cc1 [B150, (Z)-2-(5-Fluoro-1-(4-(((4-isopropylbenzyl)oxy)methyl)benzylidene)-2-methyl-1H-inden-3-yl)acetic acid]
< 30%: inhibition at 3.3 µM (HepG2 (liver cancer)) | inhibition at 3.3 µM [2]
30 to 50%: inhibition at 3.3 µM [1] | inhibition at 3.3 µM (SW480 (colon cancer)) | inhibition at 3.3 µM [4] | inhibition at 3.3 µM (HeLa (cervical cancer))
≥ 50%: inhibition at 10 µM [1] | inhibition at 10 µM (HepG2 (liver cancer)) | inhibition at 10 µM (SW480 (colon cancer)) | inhibition at 10 µM [2] | inhibition at 3.3 µM [3] | inhibition at 10 µM [3] | inhibition at 10 µM [4] | inhibition at 10 µM (HeLa (cervical cancer))

CC1=C(CC(=O)O)c2cc(F)ccc2/C1=C\c1cccc(Sc2ccc(F)cc2)c1 [C42, (Z)-2-(5-Fluoro-1-(3-((4-fluorophenyl)thio)benzylidene)-2-methyl-1H-inden-3-yl)acetic acid]
< 30%: inhibition at 3.3 µM (HepG2 (liver cancer)) | inhibition at 3.3 µM (SW480 (colon cancer)) | inhibition at 3.3 µM [3] | inhibition at 3.3 µM [4] | inhibition at 3.3 µM (HeLa (cervical cancer))
30 to 50%: inhibition at 3.3 µM [2]
≥ 50%: inhibition at 3.3 µM [1] | inhibition at 10 µM [1] | inhibition at 10 µM (HepG2 (liver cancer)) | inhibition at 10 µM (SW480 (colon cancer)) | inhibition at 10 µM [2] | inhibition at 10 µM [3] | inhibition at 10 µM [4] | inhibition at 10 µM (HeLa (cervical cancer))

CC1=C(CC(=O)O)c2cc(Cl)ccc2/C1=C\c1cccc(Oc2ccc(C#N)cc2)c1 [C94, (Z)-2-(5-Chloro-1-(3-(4-cyanophenoxy)benzylidene)-2-methyl-1H-inden-3-yl)acetic acid]
< 30%: inhibition at 3.3 µM [1] | inhibition at 3.3 µM (HepG2 (liver cancer)) | inhibition at 3.3 µM (SW480 (colon cancer)) | inhibition at 10 µM (SW480 (colon cancer)) | inhibition at 3.3 µM [4] | inhibition at 3.3 µM (HeLa (cervical cancer))
30 to 50%: inhibition at 10 µM [1] | inhibition at 3.3 µM [2] | inhibition at 10 µM [2]
≥ 50%: inhibition at 10 µM (HepG2 (liver cancer)) | inhibition at 3.3 µM [3] | inhibition at 10 µM [3] | inhibition at 10 µM [4] | inhibition at 10 µM (HeLa (cervical cancer))
